Patent publication US11440898B2, “Isoquinoline compounds, methods for their preparation, and therapeutic uses thereof in conditions associated with the alteration of the activity of beta galactosidase” (Minoryx Therapeutics S.L., priority 2016, dated 2022)

Biological target: T1, mutated beta-galactosidase (p.R60H canine GLB1) in GM11473 fibroblasts (Canis lupus familiaris, UniProt Q9TRY9, R60H)
T1 construct: host or cells: GM11473 canine GM1 gangliosidosis fibroblasts
T1 sequence (Q9TRY9 30-668 R60H): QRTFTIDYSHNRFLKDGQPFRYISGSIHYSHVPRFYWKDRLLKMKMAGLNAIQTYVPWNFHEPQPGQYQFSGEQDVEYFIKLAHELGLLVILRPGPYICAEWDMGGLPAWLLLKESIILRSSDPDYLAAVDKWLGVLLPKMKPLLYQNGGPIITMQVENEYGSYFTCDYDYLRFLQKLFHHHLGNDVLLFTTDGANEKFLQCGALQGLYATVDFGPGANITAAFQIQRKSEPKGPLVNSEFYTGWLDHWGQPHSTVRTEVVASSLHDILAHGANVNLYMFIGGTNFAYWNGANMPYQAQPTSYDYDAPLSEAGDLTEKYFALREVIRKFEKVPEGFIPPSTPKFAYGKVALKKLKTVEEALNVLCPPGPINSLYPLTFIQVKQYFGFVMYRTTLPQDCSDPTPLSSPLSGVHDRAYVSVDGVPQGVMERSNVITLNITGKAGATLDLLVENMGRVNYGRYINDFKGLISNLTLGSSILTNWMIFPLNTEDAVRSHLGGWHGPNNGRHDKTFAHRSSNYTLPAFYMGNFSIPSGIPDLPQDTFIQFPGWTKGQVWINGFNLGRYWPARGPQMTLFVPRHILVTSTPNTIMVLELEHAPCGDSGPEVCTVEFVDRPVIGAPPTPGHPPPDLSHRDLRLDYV
Assay: Enhancement of β-galactosidase activity measured in GM1 fibroblasts (GM11473), 4-MU-β-D-galactopyranoside substrate
Format: cell-based
Design: key: Increase in comparison with non-treated of >2.5 fold is shown as A; Increase in comparison with non-treated of >1.7-2.5 fold is shown as B; Increase in comparison with non-treated of 1.2-1.7 fold is shown as C; D means that no increase compared with non-treated cells was detected in this method
Conditions: increase in β-galactosidase enzyme activity vs non-treated cells, concentrations between 6 and 50 μM, 4 days incubation
Experimental: The capacity of the Compounds of the Disclosure to enhance mutated beta-galactosidase activity levels in GM1 fibroblasts was assayed as follows.
Fibroblasts homozygous for a GM1 gangliosidosis missense mutation (GM11473) (canine fibroblasts homozygous for the GM1 gangliosidosis missense mutation p.R60H equivalent to human p.R59H mutation) were purchased from Coriell Institute for Medical Research (Camden, N.J., USA).
Fibroblasts were seeded at 4×10^4 cells per well in 12-well cell culture plates in Dulbecco's Modified Eagle's Media (DMEM) supplemented with 10% of fetal bovine serum (FBS), 1% penicillin/streptomycin (P/S) (Thermo Fisher Scientific, Waltham, Mass., USA) and incubated at 37° C., 5% CO2 overnight for cell attachment. Subsequently, cells were incubated in the absence or presence of the compounds at the desired concentration for 4 days. After incubation, cells were washed twice with phosphate-buffered saline (“PBS”) and detached using Trypsin-EDTA solution (Sigma Aldrich, St. Louis, Mo., USA) to prepare cell pellets. The pellets were stored at −80° C. until activity assays were performed.
β-Galactosidase activity in cell lysates was measured by using 4-Methylumbelliferyl-β-D-galactopyranoside substrate (Sigma Aldrich, St. Louis, Mo., USA). Briefly, lysates were resuspended in 200 μL of 0.9% NaCl containing 0.01% triton X-100 lysis buffer to promote membrane disruption. The cell suspension was sonicated and centrifuged to remove insoluble materials. Then, lysates were mixed with 4-MU-β-D-galactopyranoside in 100 mM citrate buffer (pH=4) and 100 mM NaCl for 60 min at 37° C. The reaction was terminated by adding 100 mM glycine-NaOH buffer (pH=10.7). The liberated 4-MU was measured on a GloMax Discover plate reader (Promega, Madison, Wis., USA) with excitation at 340 nm and emission at 460 nm. Protein quantification was determined using Pierce BCA Protein Assay Kit (Thermo Fisher Scientific, Waltham, Mass., USA). Measurements were interpolated in a 4-MU standard curve and normalized by protein quantity. Enzyme activities were expressed in treated cells as X-fold increase in comparison with non-treated cells (X=1 represents no enhancement).
The capacity of the Compounds of the Disclosure to produce an increase in β-galactosidase enzyme activity in canine GM1 fibroblasts bearing p.R60H canine GLB1 mutation at concentrations between 6 and 50 μM is denoted as follows: • Increase in comparison with non-treated of >2.5 fold is shown as A. • Increase in comparison with non-treated of >1.7-2.5 fold is shown as B. • Increase in comparison with non-treated of 1.2-1.7 fold is shown as C. • D means that no increase compared with non-treated cells was detected in this method. • ND means “not determined.”

Structure (SMILES) | Activity in GM11473 fibroblasts
Cn1nnc2cc(NC(=O)c3cccc(Nc4nccc5ccc(Cl)cc45)c3)ccc21 [Example 1, 3-((7-Chloroisoquinolin-1-yl)amino)-N-(1-methyl-1H-benzo[d][1,2,3]triazol-5-yl)benzamide] | C (Increase in comparison with non-treated of 1.2-1.7 fold is shown as C)
O=C(NCC(c1ccccn1)N1CCOCC1)c1cccc(Nc2nccc3ccc(Cl)cc23)c1 (centres unmarked) [Example 2, 3-((7-Chloroisoquinolin-1-yl)amino)-N-(2-morpholino-2-(pyridin-2-yl)ethyl)benzamide] | C (Increase in comparison with non-treated of 1.2-1.7 fold is shown as C)
O=C(NCc1ccc2c(c1)OCCO2)c1cccc(Nc2nccc3ccc(Cl)cc23)c1 [Example 3, 3-((7-Chloroisoquinolin-1-yl)amino)-N-((2,3-dihydrobenzo[b][1,4]dioxin-6-yl)methyl)benzamide] | C (Increase in comparison with non-treated of 1.2-1.7 fold is shown as C)
O=C(NCc1ccccc1)c1cccc(Nc2nccc3ccc(Cl)cc23)c1 [Example 4, N-benzyl-3-((7-chloroisoquinolin-1-yl)amino)benzamide] | D
O=C(NCc1ccc2c(c1)OCCO2)c1ccc(Nc2nccc3ccc(Cl)cc23)cc1 [Example 5, 4-((7-Chloroisoquinolin-1-yl)amino)-N-((2,3-dihydrobenzo[b][1,4]dioxin-6-yl)methyl)benzamide] | B (Increase in comparison with non-treated of >1.7-2.5 fold is shown as B)
O=C(NCC(c1cccnc1)N1CCCC1)c1ccc(Nc2nccc3ccc(Cl)cc23)cc1 (centres unmarked) [Example 6, 4-((7-Chloroisoquinolin-1-yl)amino)-N-(2-(pyridin-3-yl)-2-(pyrrolidin-1-yl)ethyl)benzamide] | D
O=C(NCC(c1cccnc1)N1CCCC1)c1cc(Nc2nccc3ccc(Cl)cc23)ccn1 (centres unmarked) [Example 7, 4-((7-Chloroisoquinolin-1-yl)amino)-N-(2-(pyridin-3-yl)-2-(pyrrolidin-1-yl)ethyl)picolinamide] | C (Increase in comparison with non-treated of 1.2-1.7 fold is shown as C)
O=C(NCc1ccc2c(c1)OCCO2)c1cc(Nc2nccc3ccc(Cl)cc23)ccn1 [Example 8, 4-((7-Chloroisoquinolin-1-yl)amino)-N-((2,3-dihydrobenzo[b][1,4]dioxin-6-yl)methyl)picolinamide] | B (Increase in comparison with non-treated of >1.7-2.5 fold is shown as B)
O=C(NCc1ccccc1)c1cc(Nc2nccc3ccc(Cl)cc23)ccn1 [Example 9, N-benzyl-4-((7-chloroisoquinolin-1-yl)amino)picolinamide] | B (Increase in comparison with non-treated of >1.7-2.5 fold is shown as B)
COc1ccc(CNC(=O)c2cc(Nc3nccc4ccc(Cl)cc34)ccn2)cc1 [Example 10, 4-((7-Chloroisoquinolin-1-yl)amino)-N-(4-methoxybenzyl)picolinamide] | D
COc1cccc(CNC(=O)c2cc(Nc3nccc4ccc(Cl)cc34)ccn2)c1 [Example 11, 4-((7-Chloroisoquinolin-1-yl)amino)-N-(3-methoxybenzyl)picolinamide] | B (Increase in comparison with non-treated of >1.7-2.5 fold is shown as B)
COc1ccc(CNC(=O)c2cc(Nc3nccc4ccc(Cl)cc34)ccn2)cc1OC [Example 12, 4-((7-Chloroisoquinolin-1-yl)amino)-N-(3,4-dimethoxybenzyl)picolinamide] | C (Increase in comparison with non-treated of 1.2-1.7 fold is shown as C)
O=C(NCc1ccc2nsnc2c1)c1cc(Nc2nccc3ccc(Cl)cc23)ccn1 [Example 13, N-(benzo[c][1,2,5]thiadiazol-5-ylmethyl)-4-((7-chloroisoquinolin-1-yl)amino)picolinamide] | D
O=C(NC1CCc2ccccc2C1)c1cc(Nc2nccc3ccc(Cl)cc23)ccn1 (centres unmarked) [Example 14, 4-((7-Chloroisoquinolin-1-yl)amino)-N-(1,2,3,4-tetrahydronaphthalen-2-yl)picolinamide] | B (Increase in comparison with non-treated of >1.7-2.5 fold is shown as B)
O=C(NCc1ccc2c(c1)OCCCO2)c1cc(Nc2nccc3ccc(Cl)cc23)ccn1 [Example 15, 4-((7-Chloroisoquinolin-1-yl)amino)-N-((3,4-dihydro-2H-benzo[b][1,4]dioxepin-7-yl)methyl)picolinamide] | D
O=C(NCc1ccc2c(c1)CCO2)c1cc(Nc2nccc3ccc(Cl)cc23)ccn1 [Example 16, 4-((7-Chloroisoquinolin-1-yl)amino)-N-((2,3-dihydrobenzofuran-5-yl)methyl)picolinamide] | C (Increase in comparison with non-treated of 1.2-1.7 fold is shown as C)
O=C(NCc1ccc2c(c1)OCO2)c1cc(Nc2nccc3ccc(Cl)cc23)ccn1 [Example 17, N-(benzo[d][1,3]dioxol-5-ylmethyl)-4-((7-chloroisoquinolin-1-yl)amino)picolinamide] | B (Increase in comparison with non-treated of >1.7-2.5 fold is shown as B)
O=C(NCCc1ccc2c(c1)OCCO2)c1cc(Nc2nccc3ccc(Cl)cc23)ccn1 [Example 18, 4-((7-Chloroisoquinolin-1-yl)amino)-N-(2-(2,3-dihydrobenzo[b][1,4]dioxin-6-yl)ethyl)picolinamide] | C (Increase in comparison with non-treated of 1.2-1.7 fold is shown as C)
O=C(NCc1ccc2c(c1)CCCO2)c1cc(Nc2nccc3ccc(Cl)cc23)ccn1 [Example 19, 4-((7-Chloroisoquinolin-1-yl)amino)-N-(chroman-6-ylmethyl)picolinamide] | C (Increase in comparison with non-treated of 1.2-1.7 fold is shown as C)
O=C(NCC1CCc2ccccc2C1)c1cc(Nc2nccc3ccc(Cl)cc23)ccn1 (centres unmarked) [Example 20, 4-((7-Chloroisoquinolin-1-yl)amino)-N-((1,2,3,4-tetrahydronaphthalen-2-yl)methyl)picolinamide] | B (Increase in comparison with non-treated of >1.7-2.5 fold is shown as B)
COc1ccc2ccnc(Nc3ccnc(C(=O)NCc4ccc5c(c4)OCCO5)c3)c2c1 [Example 25, N-((2,3-dihydrobenzo[b][1,4]dioxin-6-yl)methyl)-4-((7-methoxyisoquinolin-1-yl)amino)picolinamide] | C (Increase in comparison with non-treated of 1.2-1.7 fold is shown as C)
COc1ccc2ccnc(Nc3ccnc(C(=O)NCc4ccccc4)c3)c2c1 [Example 26, N-benzyl-4-((7-methoxyisoquinolin-1-yl)amino)picolinamide] | C (Increase in comparison with non-treated of 1.2-1.7 fold is shown as C)
O=C(NCc1ccc2c(c1)OCCO2)c1ccc(Nc2nccc3ccc(Cl)cc23)cn1 [Example 28, 5-((7-Chloroisoquinolin-1-yl)amino)-N-((2,3-dihydrobenzo[b][1,4]dioxin-6-yl)methyl)picolinamide] | B (Increase in comparison with non-treated of >1.7-2.5 fold is shown as B)
